Results taken from patent US20080139573A1, “Treatment of resistant Schizophrenia and other CNS disorders” (Copharm, priority 2006, published 2008).
“Also recorded” adds a separate entry of the source.

Key:
Type in all cases: in vivo, human
[1] = tested on: recurrent depression patient; assay: Case report: recurrent depression, switched to oral zuclopenthixol; details: for outcome under previous antidepressants: appropriate doses, sufficient duration, compliance ascertained
Excerpt: Recurrent depressive patient is defined as a patient experiencing two or more successive major depressive episodes that are separated by at least two months of not experiencing adequate symptoms of depression to qualify for major depressive disorder (DSM-IV).
Subject diagnosed with recurrent depression for the first time. […] Compliance with treatment was ascertained. […] After 2 years, the patient had still not relapsed.

[2] = tested on: therapy resistant depression patient; assay: Case report: therapy resistant depression, switched to oral zuclopenthixol; details: for response to previous antidepressants: appropriate doses, sufficient duration
Excerpt: Resistant depression patient is defined as a patient not responding to an appropriate pharmacological treatment.
Subject one diagnosed with chronic depression for the first time. […] They were then switched to oral zuclopenthixol. Before initiating oral zuclopenthixol treatment, the patient was considered as “markedly ill”.

[3] = tested on: therapy refractory schizophrenic patient; assay: Case report: therapy refractory schizophrenia, switched to oral zuclopenthixol
Excerpt: Subject two diagnosed with therapy refractory schizophrenia for the first time The patient had been treated with appropriate doses and for sufficient duration with oral aripiprazole, oral loxapine and oral olanzapine at appropriate doses and for sufficient duration. Compliance with treatment was ascertained. […] The patient was then switched to oral zuclopenthixol.

[4] = tested on: therapy resistant schizophrenic patient; assay: Case reports: therapy resistant schizophrenic patients switched to oral zuclopenthixol; details: for response to previous antipsychotic agents: Case 1, oral, successive, appropriate doses and sufficient duration, compliance controlled
Excerpt: Therapy resistant schizophrenic patient is a schizophrenic patient who has tried two successive antipsychotic agents for a period of 6 weeks at an appropriate dosage with no significant symptomatic relief of symptoms and who was compliant to pharmacological treatment. This definition comprises determining relief of symptoms by measurement on a clinical scale such as PANSS (positive and negative […] scale). The relief should correspond to a reduction of the PANSS scale of at least 20% after a period of 6 weeks treatment of an appropriate dosage. Lack of relief of symptoms should be assessed prospectively and should not be documented on the basis of historical information. Compliance to treatment should be documented through a third party such as nurse or care giver. Lack of compliance is often a reason for unsatisfactory outcome of schizophrenia therapy; if compliance is not documented the diagnosis of therapy resistant schizophrenia cannot be ascertained. Appropriate dosage is defined as an equivalent chlorpromazine of 400-700 mg per day.
Case 1. […] Compliance to treatment was ascertained. Before being given zuclopenthixol, the patient presented severe debilitating schizophrenic symptoms.
Case 2. Subject diagnosed with therapy resistant schizophrenia for the first time. […] Compliance with treatment was ascertained. The patient was then switched to oral zuclopenthixol. Before initiating zuclopenthixol treatment, the patient was considered as “markedly ill”.
Case 3. Subject diagnosed with therapy resistant schizophrenia for the first time. […] Compliance with treatment was ascertained. The patient was then switched to oral zuclopenthixol. Before initiating zuclopenthixol treatment, the patient was considered as “among the most extremely ill patients”. After 8 weeks of treatment with zuclopenthixol, the patient was evaluated as having “much improved”, as confirmed by C.G.I. and P.A.N.S.S.
Case 4. Subject diagnosed with therapy resistant schizophrenia for the first time. The patient had been treated with appropriate doses and for sufficient duration with the following antipsychotics: oral risperidone, oral aripiprazole, oral loxapine, and oral olanzapine. Compliance with treatment was ascertained. The patient was then switched to oral zuclopenthixol. Before initiating zuclopenthixol treatment, the patient was considered as “severely ill”. After 8 weeks of treatment with zuclopenthixol, the patient was evaluated as having “much improved”, as confirmed by C.G.I. and P.A.N.S.S.
Case 5. Subject diagnosed with therapy resistant schizophrenia for the first time. […] The patient was then switched to oral zuclopenthixol. […] After 8 weeks of treatment with zuclopenthixol, the patient was evaluated as having “much improved”, as confirmed by C.G.I. and P.A.N.S.S.

[5] = tested on: therapy resistant bipolar disorder patient; assay: Case reports: therapy resistant bipolar disorder, prescribed oral zuclopenthixol; details: for response to previous treatments: appropriate doses, sufficient duration, compliance ascertained
Excerpt: Resistant bipolar disorder patient is defined as a patient not responding to an appropriate pharmacological treatment.
Case 1. Subject diagnosed with therapy resistant bipolar disorder I presented as having manic state. They had been diagnosed for the first time. […] Compliance with treatment was ascertained. They were then prescribed oral zuclopenthixol. Before initiating oral zuclopenthixol treatment, the patient was considered as “among the most extremely ill patients”. After 8 weeks of treatment with zuclopenthixol, the patient was evaluated as having “much improved”.
Case 2. Subject diagnosed with therapy resistant bipolar disorder 11 presented with depressive symptoms. They had been diagnosed for the first time. […] Compliance with treatment was ascertained. They were then prescribed oral zuclopenthixol. Before initiating oral zuclopenthixol treatment, the patient was considered as “markedly ill”.

[6] = tested on: naïve schizophrenic patient; assay: Case report: naïve schizophrenic patient given zuclopenthixol as first antipsychotic; details: 50 mg p. o. per day
Excerpt: Naïve schizophrenic patient is a schizophrenic patient who had never been treated with an antipsychotic agent.
After a period of 5 years of treatment, the patient had still not relapsed.

[7] = person two, after 8 weeks of treatment
[8] = person one, after 8 weeks of treatment

CN(C)CCC=C1c2ccccc2CCc2ccccc21 [amytriptiline]
outcome under previous antidepressants [1]: regularly experiencing new episodes of depression | response to previous antidepressants [2]: without satisfactory response

O=C1CCc2ccc(OCCCCN3CCN(c4cccc(Cl)c4Cl)CC3)cc2N1 [aripiprazole]
response to previous antipsychotics ([3]; appropriate doses, sufficient duration, significant troublesome residual symptoms remained): significant relief of symptoms

CNCCC(Oc1ccc(C(F)(F)F)cc1)c1ccccc1 (stereo not shown) [fluoxetine]
outcome under previous antidepressants [1]: regularly experiencing new episodes of depression

O=C(CCCN1CCC(O)(c2ccc(Cl)cc2)CC1)c1ccc(F)cc1 [haloperidol]
response to previous antipsychotic agents [4]: did not respond

Nc1nnc(-c2cccc(Cl)c2Cl)c(N)n1 [lamotrigine]
response to previous treatments [5]: without satisfactory response

Fc1ccc([C@@H]2CCNC[C@H]2COc2ccc3c(c2)OCO3)cc1 [paroxetine]
outcome under previous antidepressants [1]: regularly experiencing new episodes of depression | response to previous antidepressants [2]: without satisfactory response

Cc1nc2n(c(=O)c1CCN1CCC(c3noc4cc(F)ccc34)CC1)CCCC2 [risperidone]
response to previous antipsychotic agents [4]: did not respond

CN[C@H]1CC[C@@H](c2ccc(Cl)c(Cl)c2)c2ccccc21 [sertraline]
response to previous treatments [5]: without satisfactory response | response to previous antidepressants [2]: without satisfactory response

Cl.Cl.OCCN1CCN(CC/C=C2/c3ccccc3Sc3ccc(Cl)cc32)CC1 [zuclopenthixol, 4-[(3Z)-3-(2-chloro-9H-thioxanthen-9-ylidene)propyl]-1-piperazineethanol dihydrochloride]
evaluation of improvement ([5]; after 8 weeks of treatment, Case 1 bipolar I manic state, Case 2 depressive symptoms, dihydrochloride): much improved; also recorded: very much improved | evaluation of improvement, confirmed by C.G.I. and P.A.N.S.S. [3, 7]: much improved | remission [3, 7]: achieve remission | period without relapse ([1]; person): ≥ 2 years | response to treatment ([1]; person): marked response | outcome of first antipsychotic treatment [6]: successful | period of treatment without relapse [6]: ≥ 5 years | effect on schizophrenic symptoms ([4]; Case 1, patient, exclusively oral zuclopenthixol, soon after start of treatment): major relief of schizophrenic symptoms | evaluation of improvement, confirmed by C.G.I. and P.A.N.S.S. ([4]; Cases 2-5, oral, after 8 weeks of treatment, dihydrochloride): very much improved; also recorded: much improved | evaluation of improvement, confirmed by C.G.I. [2, 8]: much improved | reduction of depression on the Hamilton Depression Scale [2, 8]: marked response
